Consider six molecules from patent US20240398835A1, “METHODS FOR TREATING CONGENITAL DISORDERS OF GLYCOSYLATION” (priority 2023, published 2024).

Common to all, as to format: in vivo
The test system of test [1] is GMPPA KO (GMPPA Human / Y47DA9.1 C. elegans knockout). Put plainly: C. elegans model growth assay (worm body area), GMPPA KO line. As for the experimental part: (§1) Five lines of GMPPA disorder models were generated in C. elegans using CRISPR/Cas9 gene editing: • One line GMPPA Human (Y47DA9.1 C. elegans) knockout (GMPPA KO) • Two lines T292P Human (S272P C. elegans) point mutation (T292P PM1, T292P PM2) • Two lines R318W Human (R298W C. elegans) point mutation (R318W PM1, R318W PM2)
(§2) These animals were tested for growth delays, temperature sensitivity, and mitotic stress sensitivity, with the dual goals of validating C. elegans as a model for studying GMPPA-CDG and identifying a robust phenotype that could be leveraged in future screening of novel pharmaceuticals for the treatment of the deleterious effects of this mutation.
(§3) To assess the effect of Compounds 1-6 on mitigating the growth deficit of C. elegans carrying a mutation in the GMPPA gene, the growth of the five mutant GMPPA C. elegans lines that were either untreated or treated with one of 6 different drugs (Compounds 1-6), at different concentrations, was measured. C. elegans were allowed to develop to the LI larval stage in the liquid solution. LI C. elegans were then placed onto plates seeded with inactivated OP50 containing the appropriate drug treatment in 0.1% DMSO, and were kept at 20° C. throughout the assay. About thirty 30 C. elegans synchronized at the LI stage of each genotype were placed onto 3 replicate plates containing the appropriate drug treatment and allowed to grow to adulthood at 20° C. Plates were imaged at the same time each day using the WormLab system (MBF Bioscience). Worm area was measured using the WormLab software. Animal sizes of each treatment were compared to sizes of untreated N2 control animals, as well as untreated animals of the same genotype on each day using ANOVA, followed by post-hoc t-tests corrected for multiple comparisons using the Benjamini-Hochberg correction procedure. Analyses were performed and plotted using custom R code.
(§4) To study the effects of the different drugs on growth, the size (body area) of animals treated with each concentration of each drug was compared to the size (body area) of untreated animals of the same genotype on the same day.

Test [2] deals with R318W PM 1 (R318W Human / R298W C. elegans point mutation). Put plainly: C. elegans model growth assay (worm body area), R318W PM 1 line. As for the experimental part:
as §1, §2, §3, §4

In test [3] the test system is T292P PM 1 (T292P Human / S272P C. elegans point mutation). Nature of the test: C. elegans model growth assay (worm body area), T292P PM 1 line. As for the experimental part:
as §1, §2
as §3, with “code. […]” for “code.”

Test [4] concerns R318W PM 2 (R318W Human / R298W C. elegans point mutation). Nature of the test: C. elegans model growth assay (worm body area), R318W PM 2 line. How it is done: as §1, §2, §3, §4
For test [5], the system named is T292P PM 2 (T292P Human / S272P C. elegans point mutation). Nature of the test: C. elegans model growth assay (worm body area), T292P PM 2 line. The settings on record: 200 nM, Young Adult. How it is done:
as §1, §2
To assess the effect of Compounds 1-6 on mitigating the growth deficit of C. elegans carrying a mutation in the GMPPA gene, the growth of the five mutant GMPPA C. elegans lines that were either untreated or treated with one of 6 different drugs (Compounds 1-6), at different concentrations, was measured. C. elegans were allowed to develop to the LI larval stage in the liquid solution. LI C. elegans were then placed onto plates seeded with inactivated OP50 containing the appropriate drug treatment in 0.1% DMSO, and were kept at 20° C. throughout the assay. […] Worm area was measured using the WormLab software. […]

[6] abbreviates: 200 μM (third concentration group), Young Adult.
[7] abbreviates: 200 μM (third concentration group), Adult (day 4).
[8] abbreviates: 20 μM (as printed, second 20 μM group, last in table), Adult (day 5).
The mark [9] stands for this setting: 20 μM (as printed, second 20 μM group, last in table), Young Adult.
[10] abbreviates: 200 μM (third concentration group), Adult (day 5).

For `CC(C)(C)NC(=O)[C@H]1CC[C@H]2[C@@H]3CC[C@H]4NC(=O)C=C[C@]4(C)[C@H]3CC[C@]12C` [Compound 1, finasteride], the “% Increase size (compared to untreated)” value in test [1] (2 μM, Adult (day 4)) is 6.47%; in test [2] (20 nM, Adult (day 5)), 8.79%; in test [2] (20 nM, L3), 12.77%; in test [2] (20 nM, Young Adult), 11.59%; in test [2] (200 nM, Adult (day 5)), 7.28%; in test [2] (200 nM, L3), 13.73%. Besides, the “% Increase size (compared to untreated)” value in test [2] (200 nM, Young Adult) worked out at 16.92%; in test [2] (2 μM, Adult (day 5)), 9.08%; in test [2] (2 μM, Young Adult), 12.70%; in test [2] (20 μM, L3), 10.73%.
As to `CC(O)(CS(=O)(=O)c1ccc(F)cc1)C(=O)Nc1ccc(C#N)c(C(F)(F)F)c1` (centres unmarked) [Compound 2, N-(4-cyano-3-(trifluoromethyl)phenyl)-3-((4-fluorophenyl)sulfonyl)-2-hydroxy-2-methylpropanamide], the “% Increase size (compared to untreated)” value is on record as 16.12% in test [3] (setting [6]); 9.82% in test [4] (2 μM, Adult (day 5)); 20.08% in test [4] (2 μM, Young Adult); 9.60% in test [1] (20 μM, Adult (day 4)); 10.83% in test [1] (setting [7]); 13.14% in test [2] (2 μM, Adult (day 5)). Further, the “% Increase size (compared to untreated)” value in test [2] (2 μM, Young Adult) came to 15.14%; in test [2] (setting [8]), 12.37%; in test [2] (setting [9]) it was 9.40%; in test [2] (20 μM, Adult (day 5)), 6.98%; in test [2] (setting [10]), 13.42%; in test [2] (setting [6]), 15.18%.
Take `CCn1cc(C(=O)O)c(=O)c2cnc(N3CCNCC3)nc21` [Compound 3, 8-Ethyl-5,8-dihydro-5-oxo-2-(1-piperazinyl)pyrido (2,3-d)pyrimidine-6-carboxylic acid]: the “% Increase size (compared to untreated)” value in test [3] (2 μM, Adult (day 5)) was found to be 14.96%; in test [4] (2 μM, Adult (day 4)) it was 11.20%; in test [4] (20 μM, Adult (day 5)), 5.57%; in test [4] (20 μM, L3), 11.65%; in test [4] (20 μM, Young Adult), 14.52%; in test [4] (200 μM, Adult (day 4)), 8.02%. Also, the “% Increase size (compared to untreated)” value in test [4] (200 μM, Adult (day 5)) was determined as 5.96%; in test [1] (2 μM, Adult (day 4)), 12.37%; in test [1] (2 μM, Young Adult) it was 12.64%; in test [1] (setting [7]), 7.92%; in test [2] (2 μM, Adult (day 5)), 8.12%; in test [2] (2 μM, Young Adult), 18.05%. The “% Increase size (compared to untreated)” value in test [2] (setting [8]) came to 12.27%; in test [2] (setting [9]), 15.84%; in test [2] (20 μM, Adult (day 5)), 12.83%; in test [2] (20 μM, L3) it was 14.96%; in test [2] (20 μM, Young Adult), 9.03%; in test [2] (setting [10]), 10.51%. Further, the “% Increase size (compared to untreated)” value in test [2] (setting [6]) worked out at 14.43%.
Regarding `Cc1nc2n(c(=O)c1CCN1CCC(c3noc4cc(F)ccc34)CC1)CCCC2O` (centres unmarked) [Compound 4, 3-(2-(4-(6-fluorobenzo[d]isoxazol-3-yl)piperidin-1-yl)ethyl)-9-hydroxy-2-methyl-6,7,8,9-tetrahydro-4H-pyrido[1,2-a]pyrimidin-4-one], the “% Increase size (compared to untreated)” value in test [3] (20 μM, Adult (day 5)) amounted to 6.70%; in test [4] (200 nM, Adult (day 4)), 8.35%; in test [4] (2 μM, Adult (day 5)) it was 6.08%; in test [1] (20 nM, Adult (day 4)) it was 7.18%; in test [1] (2 μM, Adult (day 4)) it was 6.86%; in test [2] (20 nM, Adult (day 5)) it was 10.32%. Moreover, the “% Increase size (compared to untreated)” value in test [2] (20 nM, Young Adult) stood at 11.38%; in test [2] (200 nM, Adult (day 5)), 11.03%; in test [2] (2 μM, Adult (day 5)), 9.47%; in test [2] (2 μM, Young Adult), 14.09%; in test [2] (20 μM, Adult (day 5)), 10.72%.
Consider `C[C@H](NCc1ccc(OCc2cccc(F)c2)cc1)C(N)=O` [Compound 5, (S)-2-((4-((3-fluorobenzyl)oxy)benzyl)amino) propanamide], for which the “% Increase size (compared to untreated)” value in test [4] (2 μM, Adult (day 5)) is on record as 5.51%; in test [2] (20 nM, Adult (day 5)), 11.09%; in test [2] (200 nM, Adult (day 5)) it was 9.35%; in test [2] (2 μM, Adult (day 5)), 9.47%; in test [2] (2 μM, L3) it was 16.41%; in test [2] (2 μM, Young Adult) it was 16.21%.
As to `Cc1ccc2c([nH]c(=O)c3c(=O)cc(C(=O)OCCC(C)C)oc32)c1C` [Compound 6, 3-methylbutyl 7,8-dimethyl-4,5-dioxo-6H-pyrano[3,2-c]quinoline-2-carboxylate], the “% Increase size (compared to untreated)” value in test [5] was determined as 13.63%; in test [4] (20 nM, Young Adult) it was 20.62%; in test [4] (200 nM, Adult (day 4)), 7.96%; in test [4] (200 nM, Young Adult), 25.23%; in test [4] (2 μM, Adult (day 4)), 8.97%; in test [4] (2 μM, Young Adult), 18.25%. Moreover, the “% Increase size (compared to untreated)” value in test [4] (20 μM, Young Adult) stood at 22.20%; in test [1] (2 μM, Adult (day 4)), 6.58%; in test [1] (20 μM, Young Adult), 13.22%; in test [2] (20 nM, Adult (day 5)), 11.15%; in test [2] (20 nM, L3), 18.59%; in test [2] (20 nM, Young Adult) it was 27.26%. Besides, the “% Increase size (compared to untreated)” value was determined as 12.15% in test [2] (200 nM, Adult (day 5)); 18.38% in test [2] (200 nM, Young Adult); 7.41% in test [2] (2 μM, Adult (day 5)); 16.84% in test [2] (2 μM, Young Adult); 10.80% in test [2] (20 μM, Adult (day 5)); 13.93% in test [2] (20 μM, L3). Further, the “% Increase size (compared to untreated)” value in test [2] (20 μM, Young Adult) turned out to be 18.41%.
